From patent US20150342954A1, “2-BENZYL, 3-(PYRIMIDIN-2-YL) SUBSTITUTED PYRAZOLES USEFUL AS SGC STIMULATORS” (IRONWOOD PHARMACEUTICALS, INC., priority 2011, published 2015)
Where two headings read alike, the source gives them in different places.

Molecular target: T1, soluble guanylate cyclase (sGC) (Homo sapiens, UniProt Q02108+Q02153)
T1 construct: endogenously expressing soluble guanylate cyclase (sGC); endogenous in cells; host or cells: HEK293
T1 sequence (Q02153 1-619): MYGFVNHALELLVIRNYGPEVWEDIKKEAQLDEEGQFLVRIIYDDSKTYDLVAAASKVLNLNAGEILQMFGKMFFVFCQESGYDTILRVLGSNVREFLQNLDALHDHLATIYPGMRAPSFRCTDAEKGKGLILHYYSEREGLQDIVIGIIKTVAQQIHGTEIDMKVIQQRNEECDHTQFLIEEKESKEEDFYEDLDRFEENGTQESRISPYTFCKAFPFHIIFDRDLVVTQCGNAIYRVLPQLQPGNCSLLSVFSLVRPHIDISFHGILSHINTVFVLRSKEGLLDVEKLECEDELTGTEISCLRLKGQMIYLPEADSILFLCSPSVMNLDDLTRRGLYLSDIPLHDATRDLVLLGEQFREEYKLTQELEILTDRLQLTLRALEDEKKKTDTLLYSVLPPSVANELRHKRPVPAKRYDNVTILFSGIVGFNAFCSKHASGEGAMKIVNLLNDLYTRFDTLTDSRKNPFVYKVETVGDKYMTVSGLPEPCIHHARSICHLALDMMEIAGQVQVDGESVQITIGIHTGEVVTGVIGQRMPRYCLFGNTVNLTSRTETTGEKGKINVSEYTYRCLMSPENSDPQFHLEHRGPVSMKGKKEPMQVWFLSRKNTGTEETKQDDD
T1 sequence (Q02108 1-690): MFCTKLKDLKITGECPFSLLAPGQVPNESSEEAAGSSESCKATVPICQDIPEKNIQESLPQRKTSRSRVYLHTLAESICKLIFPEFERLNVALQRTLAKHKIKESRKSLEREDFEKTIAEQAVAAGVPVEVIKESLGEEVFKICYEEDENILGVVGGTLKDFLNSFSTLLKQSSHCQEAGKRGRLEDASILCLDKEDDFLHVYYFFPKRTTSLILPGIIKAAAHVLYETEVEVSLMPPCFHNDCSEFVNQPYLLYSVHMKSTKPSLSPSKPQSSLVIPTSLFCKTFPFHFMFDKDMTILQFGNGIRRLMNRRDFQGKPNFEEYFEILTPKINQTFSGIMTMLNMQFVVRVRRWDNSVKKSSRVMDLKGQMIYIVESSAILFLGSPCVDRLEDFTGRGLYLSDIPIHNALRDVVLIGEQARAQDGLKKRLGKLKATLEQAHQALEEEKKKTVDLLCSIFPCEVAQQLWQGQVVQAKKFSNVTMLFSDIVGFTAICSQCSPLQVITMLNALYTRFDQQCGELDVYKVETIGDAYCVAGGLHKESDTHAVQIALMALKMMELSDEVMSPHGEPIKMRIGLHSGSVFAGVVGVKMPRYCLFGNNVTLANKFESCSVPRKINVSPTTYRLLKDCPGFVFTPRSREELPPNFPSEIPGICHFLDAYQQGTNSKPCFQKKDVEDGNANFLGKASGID
Test: sGC-HEK-cGMP assay (run with SNP incubation)
Assay type: cell-based
Details: for Emax: Table 3A, 10 μM SNP, 100% = 30 μM BAY 41-2272 with 10 μM SNP, read-out: HEK assay Emax-unconstrained (Percent); for HEK MEC-10: concentration that would elicit 10% of the Emax in the presence of 10 μM SNP; for HEK MEC-10 / EC50: Table 3D; for EC50: in the presence of 10 μM SNP
Experimental: Biological Activity Measurement by the sGC-HEK-cGMP Assay
(Assay Run with SNP Incubation)
Human embryonic kidney cells (HEK293), endogenously expressing soluble guanylate cyclase (sGC), were used to evaluate the activity of test compounds. Compounds stimulating the sGC receptor should cause an increase in the intracellular concentration of cGMP. HEK 293 cells were seeded in Dulbecco's Modification of Eagle's Medium supplemented with fetal bovine serum (10% final) and L-glutamine (2 mM final) in a 2004 volume at a density of 1×10^5 cells/well in a poly-D-lysine coated 96 well flat bottom plate and grown overnight at 37° C. Medium was aspirated and cells were washed with 1× Hank's Buffered Saline Salt Solution (2004). Cells were then incubated for 15 minutes at 37° C. with 0.5 mM 3-isobutyl-1-methylxanthine (2004). Test article and sodium nitroprusside were then added to the assay mixture (24 each) and incubated at 37° C. for 10 minutes. After the 10 minute incubation, the assay mixture was aspirated and 0.1M HCl (2004) was added to the cells. The plate was incubated at 4° C. for 30 minutes in the 0.1M HCl to stop the reaction and lysed the cells. The plates were then centrifuged at 1,200 g for 5 minutes at room temperature. Supernatants were collected and transferred to a new flat bottom 96 well plate for analysis. Vehicle controls were carried out using DMSO (1%). A known sGC stimulator, BAY 41-2272, was used as the positive control. Samples were diluted with an equal volume of 1 M Ammonium Acetate (pH 7) to neutralize samples for better chromatography. A 2×cGMP standard curve was prepared in 0.1 M HCl and then diluted with an equal volume of 1 M Ammonium Acetate, with the following final concentrations in nM: 1024, 512, 256, 128, 64, 32, 16, 8, 4, 2, 1.cGMP concentrations were determined from each sample using the LC/MS conditions (Table 2 below) and calculated standard curve. EC50 values were calculated from concentration-response curves generated with GraphPad Prism Software.

[1] = top of concentration-response curve not fitted to 100%
[2] = top of concentration-response curve not fitted to 100%, read-out: HEK assay EC50-unconstrained

O=c1[nH]c(-c2nn(Cc3ccccc3F)c(-c3ccon3)c2F)ncc1F [Compound 3]
Emax [1]: ≥ 120%
HEK MEC-10: D (1 to <10 μM)
EC50 (read-out: HEK assay EC50): < 20 µM
EC50 [2]: 10 to 50 µM

Oc1nc(-c2cc(-c3ccon3)n(Cc3ccccc3F)n2)ncc1Sc1ccc(F)cc1 [Compound 4, 2-(1-(2-fluorobenzyl)-5-(isoxazol-3-yl)-1H-pyrazol-3-yl)-5-(4-fluorophenylthio)pyrimidin-4-ol]
Emax [1]: 60 to 80%
HEK MEC-10: C (0.1 to <1 μM)
EC50 (read-out: HEK assay EC50): < 20 µM
EC50 [2]: 1 to 5 µM

CC1(C(=O)Oc2cnc(-c3cc(-c4ccon4)n(Cc4ccccc4F)n3)nc2N)CC1 [Compound 5]
Emax [1]: 80 to 100%
HEK MEC-10: C (0.1 to <1 μM)
EC50 (read-out: HEK assay EC50): < 20 µM
EC50 [2]: 10 to 50 µM

Oc1nc(-c2cc(-c3ccon3)n(Cc3ccccc3F)n2)ncc1Sc1ccc(Cl)cc1 [Compound 6, 5-(4-chlorophenylthio)-2-(1-(2-fluorobenzyl)-5-(isoxazol-3-yl)-1H-pyrazol-3-yl)pyrimidin-4-ol]
Emax [1]: 60 to 80%
HEK MEC-10: C (0.1 to <1 μM)
EC50 (read-out: HEK assay EC50): < 20 µM
EC50 [2]: 1 to 5 µM

Oc1nc(-c2cc(-c3ncco3)n(Cc3ccccc3F)n2)ncc1Sc1ccccn1 [Compound 7, 2-(1-(2-fluorobenzyl)-5-(oxazol-2-yl)-1H-pyrazol-3-yl)-5-(pyridin-2-ylthio)pyrimidin-4-ol]
Emax [1]: 60 to 80%
HEK MEC-10: B (0.01 to <0.1 μM)
EC50 (read-out: HEK assay EC50): < 20 µM
EC50 [2]: 0.01 to 0.5 µM

Nc1nc(-c2cc(-c3ccon3)n(Cc3ccccc3F)n2)ncc1NC(=O)C1(c2ccccc2F)CC1 [Compound 9]
Emax [1]: 60 to 80%
HEK MEC-10: B (0.01 to <0.1 μM)
EC50 (read-out: HEK assay EC50): < 20 µM
EC50 [2]: 0.01 to 0.5 µM

Nc1nc(-c2cc(-c3ccon3)n(Cc3ccccc3F)n2)ncc1NC(=O)C1(c2cccc(F)c2)CC1 [Compound 11]
Emax [1]: 60 to 80%
HEK MEC-10: B (0.01 to <0.1 μM)
EC50 (read-out: HEK assay EC50): < 20 µM
EC50 [2]: 0.01 to 0.5 µM

COc1ccc(C2(C(=O)Nc3cnc(-c4cc(-c5ccon5)n(Cc5ccccc5F)n4)nc3N)CC2)cc1 [Compound 12]
Emax [1]: 60 to 80%
HEK MEC-10: B (0.01 to <0.1 μM)
EC50 (read-out: HEK assay EC50): < 20 µM
EC50 [2]: 0.01 to 0.5 µM

Nc1nc(-c2cc(-c3ccon3)n(Cc3ccccc3F)n2)ncc1NC(=O)C1(c2ccc(F)cc2)CC1 [Compound 13]
Emax [1]: 80 to 100%
HEK MEC-10: B (0.01 to <0.1 μM)
EC50 (read-out: HEK assay EC50): < 20 µM
EC50 [2]: 0.01 to 0.5 µM

CN(C1CC1)S(=O)(=O)c1cnc(-c2cc(-c3ccon3)n(Cc3ccccc3F)n2)[nH]c1=O [Compound 14]
Emax [1]: 40 to 60%
HEK MEC-10: B (0.01 to <0.1 μM)
EC50 (read-out: HEK assay EC50): < 20 µM
EC50 [2]: 0.01 to 0.5 µM

Nc1ccnc(-c2cc(-c3ccon3)n(Cc3c(F)ccc(F)c3F)n2)n1 [Compound 15]
Emax [1]: 20 to 40%
HEK MEC-10: D (1 to <10 μM)
EC50 (read-out: HEK assay EC50): 40 to 60 µM
EC50 [2]: 1 to 5 µM

CN(Cc1ccccc1)S(=O)(=O)c1cnc(-c2cc(-c3ccon3)n(Cc3ccccc3F)n2)[nH]c1=O [Compound 16]
Emax [1]: 60 to 80%
HEK MEC-10: C (0.1 to <1 μM)
EC50 (read-out: HEK assay EC50): < 20 µM
EC50 [2]: 0.5 to 1 µM

Oc1nc(-c2cc(-c3ccon3)n(Cc3ccccc3F)n2)ncc1Sc1ccc(C(F)(F)F)cc1 [Compound 17, 2-(1-(2-fluorobenzyl)-5-(isoxazol-3-yl)-1H-pyrazol-3-yl)-5-(4-(trifluoromethyl)phenylthio)pyrimidin-4-ol]
EC50 (read-out: HEK assay EC50): 1200 to 7000 µM

Oc1nc(-c2cc(-c3ccon3)n(Cc3ccccc3F)n2)ncc1Sc1ccccn1 [Compound 18, 2-(1-(2-fluorobenzyl)-5-(isoxazol-3-yl)-1H-pyrazol-3-yl)-5-(pyridin-2-ylthio)pyrimidin-4-ol]
Emax [1]: 60 to 80%
HEK MEC-10: C (0.1 to <1 μM)
EC50 (read-out: HEK assay EC50): 20 to 40 µM
EC50 [2]: 10 to 50 µM

O=c1[nH]c(-c2cc(-c3ccon3)n(Cc3c(F)ccc(F)c3F)n2)ncc1F [Compound 19, 5-fluoro-2-(5-(isoxazol-3-yl)-1-(2,3,6-trifluorobenzyl)-1H-pyrazol-3-yl)pyrimidin-4-ol]
Emax [1]: 20 to 40%
HEK MEC-10: D (1 to <10 μM)
EC50 (read-out: HEK assay EC50): 40 to 60 µM
EC50 [2]: 0.5 to 1 µM

Oc1nc(-c2cc(-c3ncco3)n(Cc3ccccc3F)n2)ncc1Sc1ccccc1 [Compound 20, 2-(1-(2-fluorobenzyl)-5-(oxazol-2-yl)-1H-pyrazol-3-yl)-5-(phenylthio)pyrimidin-4-ol]
Emax [1]: 40 to 60%
HEK MEC-10: C (0.1 to <1 μM)
EC50 (read-out: HEK assay EC50): 20 to 40 µM
EC50 [2]: 1 to 5 µM

O=c1[nH]c(-c2cc(-c3ccon3)n(Cc3ccccc3F)n2)ncc1S(=O)(=O)N1CCCC1 [Compound 21]
Emax [1]: 60 to 80%
HEK MEC-10: C (0.1 to <1 μM)
EC50 (read-out: HEK assay EC50): < 20 µM
EC50 [2]: 0.5 to 1 µM

CN(C)S(=O)(=O)c1cnc(-c2cc(-c3ccon3)n(Cc3ccccc3F)n2)[nH]c1=O [Compound 22]
Emax [1]: 80 to 100%
HEK MEC-10: D (1 to <10 μM)
EC50 (read-out: HEK assay EC50): < 20 µM
EC50 [2]: 1 to 5 µM

Fc1cnccc1Cn1nc(-c2ncccn2)cc1-c1ccon1 [Compound 23]
HEK MEC-10: E (10 to 50 μM)

CN(c1ccccc1)S(=O)(=O)c1cnc(-c2cc(-c3ccon3)n(Cc3ccccc3F)n2)[nH]c1=O [Compound 25]
Emax [1]: 60 to 80%
HEK MEC-10: C (0.1 to <1 μM)
EC50 (read-out: HEK assay EC50): < 20 µM
EC50 [2]: 0.5 to 1 µM

Fc1ccccc1Cn1nc(-c2ncc(F)c(Cl)n2)cc1-c1ccon1 [Compound 30, 3-(3-(4-chloro-5-fluoropyrimidin-2-yl)-1-(2-fluorobenzyl)-1H-pyrazol-5-yl)isoxazole]
Emax [1]: 60 to 80%
HEK MEC-10: D (1 to <10 μM)
EC50 (read-out: HEK assay EC50): < 20 µM
EC50 [2]: 1 to 5 µM

N#CC1(C(=O)Nc2cnc(-c3cc(-c4ccon4)n(Cc4cccc(F)c4F)n3)nc2N)CC1 [Compound 36]
Emax [1]: 40 to 60%
HEK MEC-10: D (1 to <10 μM)
EC50 (read-out: HEK assay EC50): < 20 µM
EC50 [2]: 0.01 to 0.5 µM

Nc1ccnc(-c2cc(-c3ccon3)n(Cc3cccc(F)c3F)n2)n1 [Compound 37]
Emax [1]: 80 to 100%
HEK MEC-10: C (0.1 to <1 μM)
EC50 (read-out: HEK assay EC50): 20 to 40 µM
EC50 [2]: 10 to 50 µM

Oc1nc(-c2cc(-c3cocn3)n(Cc3ccccc3F)n2)ncc1F [Compound 48]
Emax [1]: 60 to 80%
HEK MEC-10: C (0.1 to <1 μM)
EC50 (read-out: HEK assay EC50): < 20 µM
EC50 [2]: 1 to 5 µM

Fc1ccccc1Cn1nc(-c2ncc(Br)c(OCc3ccccc3)n2)cc1-c1ccon1 [Compound 50]
EC50 (read-out: HEK assay EC50): 1200 to 7000 µM
